According to US20240009175A9, “TETRAZOLE DERIVATIVES” (Merck Patent GmbH, priority 2020, published 2024):

Columns and labels:
human rec ACSS2 = human rec ACSS2 (Homo sapiens (Human), UniProt Q9NR19); test: Biochemical activity ACSS2 assay (AMP-Glo); conditions: human recombinant ACSS2, AMP-Glo, 180 min at 37° C.
Source text: Biochemical Activity ACSS2 Assay (IC50 ACSS2 Biochemical)
The biochemical activity assay for ACSS2 is based on the detection of released AMP by AMP-Glo™ Assay kit (Promega, Madison). The assay is run in three steps: the enzymatic reaction in which human rec ACSS2 activates acetate with ATP and Coenzyme A as cosubstrates to acetyl-CoA thereby releasing AMP and the detection reaction of AMP by AMP Glo assay in which after the destruction of the residual ATP with AMP Glo reagent 1 produced AMP is converted to ATP that is measured in a luciferase assay system (detection reagent). The ACSS2 activity correlates with the detected luminescence signal.
The assay was performed in Perkin Elmer 384 well white Proxiplates in a total volume of 8 μl.
1 nM (fc)C-term myc tagged ACSS2 (human, recombinant, Origene, Rockville, US) and a mixture of 100 μM (fc) ATP, 100 μM (fc) Coenzyme A and 500 μM (fc) sodium acetate were incubated in a total volume of 5 μl (50 mM Hepes, 1 mM Mg-chloride, 150 mM NaCl, 1 mM DTT, 0.01% (w/v) BSA, 0.3% DMSO, pH 7.5) in the absence or presence of the test compound (10 dilution concentrations, start conc 30 μM) for 180 min at 37° C. The reaction was stopped and residual ATP destroyed by the addition of 1 μl AMP Glo reagent solution (Promega, Madison, US). After 1h incubation at room temperature 2 μl of AMP Glo detection reagent was added and the assay was incubated for 0.75 hr at room temperature. The luminescence signal was measured with an Envision multimode reader (Perkin Elmer LAS Germany GmbH) at 700 nm in luminescence mode. The full value used was the inhibitor-free reaction. The pharmacological zero value was generated by addition of ACSS2 inhibitor (Ac-CoA Synthase Inhibitor—CAS 508186-14-9-Calbiochem) in a final concentration of 5 μM. The inhibitory values (IC50) were determined using the program Assay Analyzer® from GeneData.

ACSS2 [1] = molecular target: T1, ACSS2 (Homo sapiens (Human), UniProt Q9NR19); test: Cellular assay of 14C acetate incorporation into fatty acids (IC50 ACSS2 cellular lipids); assay type: cell-based; conditions: HCT-15 cells
T1 sequence (Q9NR19 whole entry): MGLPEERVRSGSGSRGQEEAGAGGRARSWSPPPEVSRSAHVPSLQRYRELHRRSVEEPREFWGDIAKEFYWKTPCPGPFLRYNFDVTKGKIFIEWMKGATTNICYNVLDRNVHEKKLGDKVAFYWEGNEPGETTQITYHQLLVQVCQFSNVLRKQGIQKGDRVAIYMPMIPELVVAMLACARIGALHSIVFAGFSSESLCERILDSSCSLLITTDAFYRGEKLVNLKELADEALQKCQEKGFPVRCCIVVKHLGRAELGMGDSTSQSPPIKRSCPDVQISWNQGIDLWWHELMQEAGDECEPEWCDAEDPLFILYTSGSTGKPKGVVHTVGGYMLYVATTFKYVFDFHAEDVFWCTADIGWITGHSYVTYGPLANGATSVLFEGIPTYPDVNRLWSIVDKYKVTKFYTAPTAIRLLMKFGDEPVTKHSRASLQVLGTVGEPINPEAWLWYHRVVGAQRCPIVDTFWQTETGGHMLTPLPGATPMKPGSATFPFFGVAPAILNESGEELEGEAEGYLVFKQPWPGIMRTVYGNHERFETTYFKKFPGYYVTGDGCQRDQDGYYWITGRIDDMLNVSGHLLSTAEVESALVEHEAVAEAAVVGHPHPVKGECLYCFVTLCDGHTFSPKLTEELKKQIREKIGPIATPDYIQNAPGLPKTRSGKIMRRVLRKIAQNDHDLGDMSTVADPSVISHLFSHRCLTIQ
Method: Cellular Assay of ^14C Acetate Incorporation into Fatty Acids (IC50 ACSS2 Cellular Lipids)
This protocol describes a cellular assay capable to quantify endogenous fatty acid synthesis activity in the human HCT-15 cancer cell line following the incorporation of extracellularly administered radiolabeled ^14C acetate with a scintillation proximity based read out on extracted fatty acids.
HCT-15 cells were grown in RPMI 1640 (Gibco) supplemented with 2 mM glutamine, 1 mM sodium pyruvate 10 mM HEPES and 10% FCS (heat-inactivated) passaged every 2-3 days to remain a subconfluent, vital culture. A working cell bank was prepared with each aliquot containing 1×10^7 viable cells. After thawing, these cells are dilute immediately 1:20 in pre-warmed (37° C.) culture medium. Cells are collected by centrifugation at 200×g for 5 min, and the supernatant is replaced by 30 mL of fresh culture medium per aliquot to obtain a cell suspension containing 350000 cells/ml. From this cell suspension 100 μL are dispersed into each well of a collagen coated 96 well plate, (black, clear bottom, PS, F-bottom, Greiner) and culture for 24 h (37° C., 5% CO2). After incubation the culture medium is removed and the wells are washed once with 100 μL PBS++(supplemented with Mg^2+/Ca^2+, Gibco) and 50 μL assay medium (RPMI 1640+10 mM HEPES) are added to each well. Compounds serial dilutions are prepared from 10 mM stock solutions in DMSO using a fixed dilution factor (usually 1:3). After preparation of the dilution series in DMSO, the individual dilutions are further diluted in the assay medium. This working dilution is prepared such, that the concentration is 7× of the final concentration in the assay. The maximal DMSO concentration in the final assay is 0.1%.
To each well 10 μL compound working dilution or DMSO blank are added and the cells are cultured for 2 h (37° C., 5% CO2). Then 10 μL AlamarBlue reagent (Invitrogen) containing 14 μCi/mL 14C-acetate (Perkin Elmer) are added to each well (70 μl total volume) and cells are again cultured for 2 h. Cell viability is verified by measuring the AlamarBlue fluorescence (Tecan Safire, ex: 544 nm/em: 590 nm). After incubation the culture medium is removed and the wells are carefully washed once with cold 100 μL PBS++. For cell lysis and fatty acid recovery 50 μl 0.1 M NaOH and 0.1% Triton-X100 are added per well. The plate is sealed with PlateLoc (clear peelable heat seal, Agilent) and incubate at 70° C. for 16-24 h. After cooling to room temperature, the plates are centrifuged for 1 min at 1000 rpm and the plate seals are removed. For acidification 150 μL 0.1 M HCl are added to each well, mixed and 150 μL of the mixture are transferred into a 96 well FlashPlate (Perkin Elmer). The plates are sealed with TopSeal-A (Perkin Elmer). To allow for the fatty acid binding to the well surfaces the plates are incubate for 4 h at 70° C. After cooling to room temperature, the plates are centrifuged for 1 min at 1000 rpm and stored for 0.5-2h at room temperature in the dark. Radioactivity from ^14C incorporation into fatty acids in the wells is measured as CPM count in a MicroBeta scintillation counter (Perkin Elmer).

ACSS2 [2] = molecular target: T1, ACSS2; test: Cellular assay of 14C acetate incorporation into histones (IC50 ACSS2 cellular histone); assay type: cell-based; conditions: HCT-15 cells
Source text: Cellular Assay of ^14C Acetate Incorporation into Histones (IC50 ACSS2 Cellular Histone)
This protocol describes a cellular assay capable to quantify endogenous histone acetylation activity in the human HCT-15 cancer cell line following the incorporation of extracellularly administered radiolabeled ^14C acetate with a scintillation based read out on acid extracted histones.
HCT-15 cells are trypsinized, washed and suspended in DMEM culture medium supplemented with penicillin/streptomycin (100 U/mL), sodium pyruvate (1 mM), and 10% FBS
Compounds serial dilutions are prepared in 96-well V-bottom microplate from 10 mM stock solutions in DMSO. From these dilutions 0.5 μl are transferred to a fresh plate including pure DMSO as negative control. The dilutions are prepared such, that the final concentration in the assay is 1/400 of the concentration in the serial dilution. The final DMSO concentration in the assay is 0.25%.
The cell suspension is seeded at densities of 2×10^5 cells per 170 μl into individual wells of a 96 well plate each containing 0.5 μl aliquots of compound serial dilutions and are kept for 1 h in a cell incubator. To each well 30 μL of a mixture containing 0.5 mCi/mL of ^14C-acetate with full medium are added. Then, the wells are incubated for 3 hrs in the cell incubator.
Further steps of the procedure should be conducted on ice or instrumentations precooled to 4° C. Cells are sedimented in the 96-well V-bottom microplate by centrifugation (Eppendorf 5804 R) at 1200 rpm for 5 min. The supernatant is removed and the cells are washed twice with 200 μL of PBS-NaB (5 mM sodium butyrate) buffer by iterative resuspension and centrifugation. Finally, the cells are resuspended in 50 μL of TEB (PBS-NaB+0.5% Triton X-100) and left on ice for 10 minutes. After centrifugation at 2300 rpm for 10 minutes at 4° C. the supernatant is removed, the remaining pellet is suspended in 50 μL of 0.2M HCl and incubated over night at 4° C. After incubation the well plate is shaken for 2 minutes in a MTP plate shaker set to 1200 rpm and then centrifuged at 3700 rpm for 10 mins. The lysate is carefully aspirated (˜43 μL) and transferred into a white MTP plate (Greiner bio-one 65509). 90 μL of Ultima Gold XR scintillation cocktail are added and the plates are sealed with a transparent cover tape before mixing vigorously using plate shaker set to 1200 rpm. Radioactivity from ^14C incorporation in the wells is measured as CPM count in a MicroBeta Trilux luminescence counter.

Chain of human rec ACSS2 (Q9NR19 whole entry): as above

Row | Structure (SMILES) | IC50 (human rec ACSS2) | IC50 (ACSS2 [1]) | IC50 (ACSS2 [2])
1 | CCn1c(C(O)(c2ccccc2)c2nccs2)nc2nc(OC)c(-c3nnn[nH]3)cc21 (racemic) [Compound 31, [1-ethyl-5-methoxy-6-(1H-1,2,3,4-tetrazol-5-yl)-1H-imidazo[4,5-b]pyridin-2-yl](phenyl)(1,3-thiazol-2-yl)methanol] | 1 to 10 nM | 0.01 to 1 nM | 1 to 10 nM
2 | CCn1c(C(O)(c2ccccc2)c2ccccc2)nc2nc(F)c(-c3nnn[nH]3)cc21 [Compound 45, [1-ethyl-5-fluoro-6-(1H-1,2,3,4-tetrazol-5-yl)-1H-imidazo[4,5-b]pyridin-2-yl]diphenylmethanol] | 10 to 100 nM | 1 to 10 nM | 100 to 10000 nM
3 | Cc1nc2nc(C(O)(c3ccccc3)c3ccccc3)n(C)c2cc1-c1nnn[nH]1 [Compound 56, [1,5-dimethyl-6-(1H-1,2,3,4-tetrazol-5-yl)-1H-imidazo[4,5-b]pyridin-2-yl]diphenylmethanol] | 1 to 10 nM | 10 to 100 nM | 100 to 10000 nM
